Laboratory results as given in PubChem BioAssay (NCI).
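Compound exposure: 48 hours, 5 concentrations, 96-well plates. At the GI50, growth is halved. The concentration for full growth arrest is given as TGI.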

Tests used:
Test in all cases: DTP human tumour cell line panel, 48 h
[1] = test system: 786-0 renal
[2] = test system: A498 renal
[3] = test system: A549 NSCLC
[4] = test system: ACHN renal
[5] = test system: BT-549 breast
[6] = test system: CCRF-CEM leukemia
[7] = test system: COLO 205 colon
[8] = test system: DU-145 prostate
[9] = test system: EKVX NSCLC
[10] = test system: HCC-2998 colon
[11] = test system: HCT-116 colon
[12] = test system: HCT-15 colon
[13] = test system: HL-60(TB) leukemia
[14] = test system: HOP-62 NSCLC
[15] = test system: HOP-92 NSCLC
[16] = test system: HS 578T breast
[17] = test system: HT29 colon
[18] = test system: IGROV1 ovarian
[19] = test system: K-562 leukemia
[20] = test system: KM12 colon
[21] = test system: LOX IMVI melanoma
[22] = test system: M14 melanoma
[23] = test system: MALME-3M melanoma
[24] = test system: MCF7 breast
[25] = test system: MDA-MB-231 breast
[26] = test system: MDA-MB-435
[27] = test system: MOLT-4 leukemia
[28] = test system: NCI-H226 lung
[29] = test system: NCI-H23 lung
[30] = test system: NCI-H460 lung
[31] = test system: NCI-H522 lung
[32] = test system: NCI/ADR-RES ovarian
[33] = test system: OVCAR-3 ovarian
[34] = test system: OVCAR-4 ovarian
[35] = test system: OVCAR-5 ovarian
[36] = test system: OVCAR-8 ovarian
[37] = test system: PC-3 prostate
[38] = test system: RPMI-8226 leukemia
[39] = test system: RXF 393 renal
[40] = test system: SF-268 CNS
[41] = test system: SF-295 CNS
[42] = test system: SF-539 CNS
[43] = test system: SK-MEL-2 melanoma
[44] = test system: SK-MEL-28 melanoma
[45] = test system: SK-MEL-5 melanoma
[46] = test system: SK-OV-3 ovarian
[47] = test system: SN12C renal
[48] = test system: SNB-19 CNS
[49] = test system: SNB-75 CNS
[50] = test system: SR leukemia
[51] = test system: SW-620 colon
[52] = test system: T-47D breast
[53] = test system: TK-10 renal
[54] = test system: U251 CNS
[55] = test system: UACC-257 melanoma
[56] = test system: UACC-62 melanoma
[57] = test system: UO-31 renal

O=C(CCN1CCOCC1)Nc1cccc(-n2cc(-c3ccncc3)c(-c3ccc(Cl)c(O)c3)n2)c1
GI50 [1]: 1.9 µM
TGI [1]: 4.75 µM
GI50 [2]: 1.52 µM
TGI [2]: 5.48 µM
GI50 [3]: 3.75 µM
TGI [3]: 16.1 µM
GI50 [4]: 2.5 µM
TGI [4]: 12.5 µM
GI50 [5]: 4.12 µM
TGI [5]: 18.1 µM
GI50 [6]: 3.43 µM
TGI [6]: 15.9 µM
GI50 [7]: 1.66 µM
TGI [7]: 4.27 µM
GI50 [8]: 2.49 µM
TGI [8]: 11.7 µM
GI50 [9]: 3.63 µM
TGI [9]: 20.4 µM
GI50 [10]: 4.57 µM
TGI [10]: 17.3 µM
GI50 [11]: 3.04 µM
TGI [11]: 12 µM
GI50 [12]: 1.24 µM
TGI [12]: 10.8 µM
GI50 [13]: 2.37 µM
TGI [13]: 6.61 µM
GI50 [14]: 2.23 µM
TGI [14]: 13.5 µM
GI50 [15]: 2.06 µM
TGI [15]: 14 µM
GI50 [16]: 3.17 µM
TGI [16]: 25.8 µM
GI50 [17]: 1.9 µM
TGI [17]: 11 µM
GI50 [18]: 3.52 µM
TGI [18]: 21.5 µM
GI50 [19]: 1.76 µM
TGI [19]: 11.4 µM
GI50 [20]: 2.46 µM
TGI [20]: 11.5 µM
GI50 [21]: 1.91 µM
TGI [21]: 11.8 µM
GI50 [22]: 1.53 µM
TGI [22]: 4.16 µM
GI50 [23]: 1.65 µM
TGI [23]: 10.8 µM
GI50 [24]: 0.634 µM
TGI [24]: 11.9 µM
GI50 [25]: 2.6 µM
TGI [25]: 6.84 µM
GI50 [26]: 0.313 µM
TGI [26]: 1.29 µM
GI50 [27]: 2.65 µM
TGI [27]: 11.9 µM
GI50 [28]: 4.98 µM
TGI [28]: 21.4 µM
GI50 [29]: 3.04 µM
TGI [29]: 18.6 µM
GI50 [30]: 2.79 µM
TGI [30]: 12.4 µM
GI50 [31]: 0.448 µM
TGI [31]: 5.4 µM
GI50 [32]: 2.29 µM
TGI [32]: > 100 µM
GI50 [33]: 0.644 µM
TGI [33]: 7.16 µM
GI50 [34]: 3.07 µM
TGI [34]: 17.7 µM
GI50 [35]: 4.07 µM
TGI [35]: 18.4 µM
GI50 [36]: 3.71 µM
TGI [36]: 57.5 µM
GI50 [37]: 1.74 µM
TGI [37]: 12.9 µM
GI50 [38]: 2.8 µM
TGI [38]: 15.1 µM
GI50 [39]: 1.39 µM
TGI [39]: 4.66 µM
GI50 [40]: 2.81 µM
TGI [40]: 14.4 µM
GI50 [41]: 1.31 µM
TGI [41]: 3.38 µM
GI50 [42]: 1.77 µM
TGI [42]: 3.72 µM
GI50 [43]: 1.85 µM
TGI [43]: 6.58 µM
GI50 [44]: 1.53 µM
TGI [44]: 3.33 µM
GI50 [45]: 0.621 µM
TGI [45]: 2.36 µM
GI50 [46]: 3.51 µM
TGI [46]: 14.4 µM
GI50 [47]: 3.74 µM
TGI [47]: 23.6 µM
GI50 [48]: 4.87 µM
TGI [48]: 22.6 µM
GI50 [49]: 0.825 µM
TGI [49]: 3.3 µM
GI50 [50]: 0.685 µM
TGI [50]: 8.53 µM
GI50 [51]: 1.56 µM
TGI [51]: 12.6 µM
GI50 [52]: 1.74 µM
TGI [52]: 9.75 µM
GI50 [53]: 8.18 µM
TGI [53]: 20.7 µM
GI50 [54]: 3.32 µM
TGI [54]: 12.8 µM
GI50 [55]: 1.9 µM
TGI [55]: 4.42 µM
GI50 [56]: 1.67 µM
TGI [56]: 13.6 µM
GI50 [57]: 1.69 µM
TGI [57]: 11 µM
